From PubChem BioAssay (NCI)
Where “and” joins values, the source holds several entries; their conditions need not be identical. Identical values can stand only once.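 All cell lines were grown in 96-well plates and treated with compound for 48 hours. GI50 is the concentration that inhibits growth by half. At the TGI there is no net growth.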

Columns and labels:
Assay in all cases: growth of human tumour cells (NCI), 48 h
BT-549 breast = test system: BT-549 breast
MALME-3M melanoma = test system: MALME-3M melanoma
NCI-H226 lung = test system: NCI-H226 lung
OVCAR-5 ovarian = test system: OVCAR-5 ovarian
PC-3 prostate = test system: PC-3 prostate
SF-539 CNS = test system: SF-539 CNS
SK-MEL-5 melanoma = test system: SK-MEL-5 melanoma
SN12C renal = test system: SN12C renal
SNB-19 CNS = test system: SNB-19 CNS
TK-10 renal = test system: TK-10 renal

Row | Structure (SMILES) | GI50 (BT-549 breast) | TGI (BT-549 breast) | GI50 (MALME-3M melanoma) | TGI (MALME-3M melanoma) | GI50 (NCI-H226 lung) | TGI (NCI-H226 lung) | GI50 (OVCAR-5 ovarian) | TGI (OVCAR-5 ovarian) | GI50 (PC-3 prostate) | TGI (PC-3 prostate) | GI50 (SF-539 CNS) | TGI (SF-539 CNS) | GI50 (SK-MEL-5 melanoma) | TGI (SK-MEL-5 melanoma) | GI50 (SN12C renal) | TGI (SN12C renal) | GI50 (SNB-19 CNS) | TGI (SNB-19 CNS) | GI50 (TK-10 renal) | TGI (TK-10 renal)
1 | c1cc(N2CCN(c3ccc(C4=NCCCN4)cc3)CC2)ccc1C1=NCCCN1 | > 100 µM | > 100 µM | > 47.6 µM | > 100 µM | 59.3 µM | > 100 µM | > 87.8 µM | > 100 µM | > 52.7 µM | > 100 µM | > 74.5 µM | > 100 µM | 21.2 µM | > 100 µM | > 100 µM | > 100 µM | > 71.2 µM | > 100 µM | > 69.4 µM | > 100 µM
2 | Cc1[nH]c(-c2cc(N)ccc2Cl)c2c1C(=O)CCCC2 | 5.89 µM | > 100 µM | 2.12 µM | 9.94 µM | 3.37 µM | > 100 µM | 6.54 µM | > 100 µM | 3.5 µM | > 100 µM | 3.13 µM | 26.7 µM | 6.15 µM | 30.4 µM | 5.01 µM | > 100 µM | 4.53 µM | > 100 µM | 2.19 µM | 31 µM
3 | C[n+]1c2ccccc2nc2c(N)cc(N)cc21 | 2.62 µM | 12.5 µM | 2.39 µM | 9.77 µM | 8.41 µM | > 100 µM | > 100 µM | > 100 µM | 21.3 µM | > 100 µM | 5.41 µM | 32.2 µM | 2.56 µM | 7.09 µM | 2.55 µM | 14 µM | 2.9 µM | 14.4 µM | 64.9 µM | > 100 µM
4 | CC(CO)(Nc1ccc([N+](=O)[O-])cc1[N+](=O)[O-])C(=O)O (centres undefined) | – | 67.2 µM | – | 36.1 µM | – | > 100 µM | – | 89 µM | – | > 100 µM | – | 91.1 µM | – | 44.5 µM | – | 39.4 µM | – | > 100 µM | – | > 100 µM
5 | CC(C)C[C@H](NC(=O)CCn1ccc2ccccc2c1=O)B(O)O | 2.21 µM | 17.1 µM | 2.58 µM | 9.89 µM | 1.47 µM | 3.24 µM | 18.8 µM | > 100 µM | 5.77 µM | > 100 µM | 1.61 µM | 5.62 µM | 4.3 µM | 19 µM | 11.2 µM | 55.4 µM | 8.02 µM | > 100 µM | 2.93 µM | 9.8 µM
6 | COc1cc(/C=C/c2ccc3c(Br)cc(Br)c(O)c3n2)ccc1O | 2.61 µM | 13.6 µM | 4.81 µM | 18.4 µM | 4.61 µM | 17.4 µM | 1.49 µM | 5.84 µM | 1.26 µM | 15.1 µM | 2.29 µM | 10.3 µM | 1.47 µM | 10.3 µM | 2 µM | 17.9 µM | 2.67 µM | 15.2 µM | 3.84 µM | 15.5 µM
7 | CC1C=CC(OC(=O)C(C)(O)CCC(O)(C(=O)OC2CC(O)C(C(C)C)CC2(C)O)C(C)C)(C(C)C)CC1 (centres undefined) | 0.561 µM | 1.22 µM | 0.709 µM | 1.45 µM | 0.716 µM | 2.48 µM | 0.665 µM | 1.35 µM | 0.676 µM | 1.4 µM | 0.685 µM | 1.35 µM | 0.377 µM | 1.03 µM | 0.149 µM | 0.602 µM | 1.19 µM | 16.2 µM | 0.754 µM | 1.5 µM
8 | Cc1cc(C)c(C2CNCc3cc4c(cc32)CNCC4c2c(C)cc(C)cc2C)c(C)c1 (centres undefined) | 4.39 µg/mL | 15.9 µg/mL | 3.05 µg/mL | 7.45 µg/mL | 13.4 µg/mL | 26.5 µg/mL | 8.38 µg/mL | 20.4 µg/mL | 5.67 µg/mL | 15.6 µg/mL | 2.23 µg/mL | 3.85 µg/mL | 2 µg/mL | 3.96 µg/mL | 2.59 µg/mL | 9.63 µg/mL | 3.46 µg/mL | 11 µg/mL | 3.22 µg/mL | 26.9 µg/mL
9 | COc1cc(C(=O)c2cc(C)c3[nH]c4ccc(O)cc4c3c2C)cc(OC)c1OC | < 0.0164 µM | 1.26 µM | 0.0347 µM | > 100 µM | 0.0943 µM | > 81.3 µM | 0.0511 µM | > 100 µM | < 0.02 µM | > 100 µM | < 0.0113 µM | – | 0.0162 µM | 0.0637 µM | 0.0415 µM | > 100 µM | 0.0289 µM | > 47.3 µM | 4.24 µM | > 100 µM
10 | N/C(=N\OC(=O)c1ccccc1)C(Cc1ccccc1)C(=O)NOC(=O)c1ccccc1 (centres undefined) | 4.26 µM | 16.5 µM | 3.47 µM | 14.8 µM | 3.51 µM | 14 µM | 9.1 µM | 24.3 µM | 2.62 µM | 7.2 µM | 1.84 µM | 3.99 µM | 2.72 µM | 9.03 µM | 3.39 µM | 25.4 µM | 3.55 µM | 15.6 µM | 2.12 µM | 3.76 µM
11 | C[C@@H]1Cc2cc(O)ccc2[C@H]2CC[C@]3(C)/C(=C/COCCN(C)C)CC[C@H]3[C@H]12 (tested in a mixture with another compound) | 0.294 µM | 0.8 µM | 0.324 µM | 0.865 µM | 0.744 µM | 1.97 µM | 0.251 µM | 0.724 µM | 0.233 µM | 1.3 µM | 0.176 µM | 0.339 µM | 0.205 µM | 0.453 µM | 0.111 µM | 0.789 µM | 0.364 µM | 1.34 µM | 0.209 µM | 0.461 µM
12 | CSc1ccc(C2=NN(C(C)=O)C(c3ccc(-c4ccc(Cl)cc4)o3)C2)cc1 (centres undefined) | 76.4 µM | > 100 µM | 43.2 µM | > 100 µM | 44.4 µM | > 100 µM | > 100 µM | > 100 µM | 20.1 µM | > 100 µM | 60.2 µM | > 100 µM | 29.1 µM | > 100 µM | 21.7 µM | 40.6 µM | > 100 µM | > 100 µM | 37.3 µM | > 100 µM
13 | O=C1C(OCCOc2ccccc2)=C(OCCOc2ccccc2)C(=O)c2ccccc21 | > 100 µM | > 100 µM | 24.5 µM | > 100 µM | 22.1 µM | > 100 µM | > 100 µM | > 100 µM | 17.2 µM | > 100 µM | > 100 µM | > 100 µM | 1.92 µM | 4.86 µM | 4.38 µM | 52 µM | 11.1 µM | > 100 µM | > 100 µM | > 100 µM
14 | CN1CCN(CCCCCN=c2cc3c(=O)n(CCCCCN4CCN(C)CC4)c(=O)c4c(NCCCCCN5CCN(C)CC5)cc5c(O)n(CCCCCN6CCN(C)CC6)c(=O)c2c5c4-3)CC1 | 4.34 µM | 15.7 µM | 2.55 µM | 5.98 µM | 3.25 µM | 21.6 µM | 2.13 µM | 7.79 µM | 3.32 µM | 19.4 µM | 2.64 µM | 8.32 µM | 14.1 µM | 58.8 µM | 2.55 µM | 9.73 µM | 2.14 µM | 7.16 µM | 10.6 µM | 77.2 µM
15 | COc1cccc(Oc2ccccc2NC(=O)CNC(=O)c2cccc3ccccc23)c1 | 0.298 µM | 10.2 µM | 16.9 µM | > 25 µM | 2.49 µM | > 25 µM | 1.13 µM | > 25 µM | 0.284 µM | > 25 µM | 0.225 µM | 1.07 µM | 0.216 µM | 3.65 µM | 1.44 µM | > 25 µM | 0.617 µM | > 25 µM | 1.58 µM | > 25 µM
16 | Oc1cc(-n2cccn2)c(O)cc1-n1cccn1 | – | 35.7 µM | – | > 78.1 µM | – | > 89 µM | – | 83.3 µM | – | 44.8 µM | – | > 78.6 µM | – | 58 µM | – | 37.8 µM | – | > 82.3 µM | – | 49.6 µM
17 | COc1ccc(/C=C(/C)[N+](=O)[O-])cc1OC | 3.74 µM and 2.07 µM | 8.87 µM and 3.92 µM | 1.69 µM and 0.38 µM | 3.89 µM and 1.56 µM | 5.03 µM and 3.71 µM | 9.63 µM and 13.4 µM | 4.12 µM and 5 µM | 12.4 µM and 16.1 µM | 2.65 µM and 2.78 µM | 6.34 µM and 6.74 µM | 2.08 µM and 2.22 µM | 3.94 µM and 4.7 µM | 1.71 µM and 1.9 µM | 3.09 µM and 3.43 µM | 2.35 µM and 2.18 µM | 6.07 µM and 5.77 µM | 6.82 µM and 3.16 µM | 20 µM and 12.6 µM | 1.76 µM and 1.32 µM | 3.5 µM and 2.7 µM
18 | COc1cc2cc(Oc3ccc(NC(=O)c4ccc(Cl)c(Cl)c4)cc3)c(C)nc2cc1OC | 3.91 µM | > 100 µM | > 100 µM | > 100 µM | > 100 µM | > 100 µM | > 100 µM | > 100 µM | 4.77 µM | > 100 µM | > 100 µM | > 100 µM | 4.99 µM | > 100 µM | > 100 µM | > 100 µM | > 100 µM | > 100 µM | 9.81 µM | > 100 µM
